# Assay results taken from US6890537B2, “Antimicrobial theta defensins and methods of using same” (The Regents of the University of California, priority 1999, dated 2005).
# Positions of bridges follow the written chain, without caps; N, C: chain ends. Residues, ends and D or L forms follow the SMILES beside them.
# Key:
# C. albicans = assay: Microbicidal suspension assay (colony counts); assay type: cell-based, Candida albicans; settings: 2 hr, 37° C., 10 mM PIPES, pH 7.4, 5 mM glucose; FIG. 9D
# Description: (§1) Killing was quantified by colony counts. Panels B-D show incubation of the indicated organisms with RTD-1 peptide: Listeria monocytogenes and Staphylococcus aureus (Panel B); Salmonella typhimurium and Escherichia coli (Panel C); and Cryptococcus neoformans and Candida albicans (Panel D). The limit of detection (1 colony per plate) was equal to 1×10^3 colony forming units in the incubation mixture.
# (§2) Additional antimicrobial assays were conducted on other microbial organisms. […] In FIG. 9A, S. aureus 502a was incubated with increasing concentrations of natural or synthetic peptide for 30 min at 37° C. in 10 mM PIPES, pH 7.4, containing 5 mM glucose. Killing was quantified by colony counts. […] The limit of detection (1 colony per plate) was equal to 1×10^3 colony forming units in the incubation mixture.
# E. coli ML 35 = assay: Microbicidal suspension assay (colony counts); assay type: cell-based, Escherichia coli
# Description: as §1, §2
# (§3) An acyclic version of theta defensin was also tested for antimicrobial activity. […] Killing activity was quantified by colony counts after 18 hrs.
# [1] = tested on: Staphylococcus aureus 502a; assay: Microbicidal suspension assay (colony counts); assay type: cell-based
# Description: S. aureus 502a was incubated with increasing concentrations of natural or synthetic theta defensin peptide. Killing was quantified by colony counts.
# Killing was quantified by colony counts. […] The limit of detection (1 colony per plate) was equal to 1×10^3 colony forming units in the incubation mixture.
# Killing activity was quantified by colony counts after 18 hrs.
# Killing was quantified by colony counts.
# as §2
# It has been proposed that salt sensitivity of airway defensins underlies the susceptibility of cystic fibrosis patients to pulmonary infections.
# as §3
# L. monocytogenes = assay: Microbicidal suspension assay (colony counts); assay type: cell-based, Listeria monocytogenes; settings: 2 hr, 37° C., 10 mM PIPES, pH 7.4, 5 mM glucose; FIG. 9B
# Description: as §1, §2
# S. typhimurium = assay: Microbicidal suspension assay (colony counts); assay type: cell-based, Salmonella typhimurium; settings: 2 hr, 37° C., 10 mM PIPES, pH 7.4, 5 mM glucose; FIG. 9C
# Description: as §1, §2
# Escherichia coli ML35 = assay: Agar diffusion assay; assay type: cell-based
# Description: (§4) The purified chromatographic peaks were screened for antibacterial activity against Escherichia coli ML35 and Staphylococcus aureus 502a. Briefly, antibacterial activity was screened with an agar diffusion assay using lyophilized samples of HPLC fractions dissolved in 5 μl of 0.01% acetic acid as described by Lehrer et al., J. Immunol. Methods 137:167-173 (1991)).
# (§5) Agar diffusion assays and microbicidal suspension assays were used to examine the activity of theta defensin against Staphylococcus aureus 502A, Escherichia coli ML35, Listeria monocytogenes, and Cryptococcus neoformans.
# [2] = tested on: Staphylococcus aureus 502a; assay: Agar diffusion assay; assay type: cell-based
# Description: as §4, §5
# C. neoformans = assay: Microbicidal suspension assay (colony counts); assay type: cell-based, Cryptococcus neoformans; settings: 2 hr, 37° C., 10 mM PIPES, pH 7.4, 5 mM glucose; FIG. 9D
# Description: as §1, §2
# [3] = tested on: Listeria monocytogenes EGD; assay: Agar diffusion assay; assay type: cell-based; settings: 10, 30, 100 or 300 μg/ml; agar seeded with 1×10^6 colony forming units; FIG. 7
# Text: as §5
# [4] = tested on: Cryptococcus neoformans 271A; assay: Agar diffusion assay; assay type: cell-based; settings: 10, 30, 100 or 300 μg/ml; agar seeded with 1×10^6 colony forming units; FIG. 7
# Text: as §5
# [5] = 10, 30, 100 or 300 μg/ml, agar seeded with 1×10^6 colony forming units, FIG. 7
# [6] = lyophilized HPLC fractions in 5 μl of 0.01% acetic acid, compared with other isolated leukocyte peptides
smiles,measurement,setting,value
"CC[C@H](C)[C@@H]1NC(=O)[C@@H]2CSSC[C@H](NC(=O)[C@H](CCCNC(=N)N)NC(=O)[C@@H]3CSSC[C@H](NC1=O)C(=O)N[C@@H]([C@@H](C)O)C(=O)N[C@@H](CCCNC(=N)N)C(=O)NCC(=O)N[C@@H](Cc1ccccc1)C(=O)N3)C(=O)N[C@@H](CC(C)C)C(=O)N[C@H]1CSSC[C@H](NC(=O)[C@H](C(C)C)NC(=O)CNC(=O)[C@H](CCCNC(=N)N)NC(=O)[C@H](CCCNC(=N)N)NC1=O)C(=O)N[C@@H](CCCNC(=N)N)C(=O)N2 [RTD-1] (cyclo(GFCRCLCRRGVCRCICTR); disulfide 3-16, 5-14, 7-12)",microbicidal activity,C. albicans,killed
same,microbicidal activity,"E. coli ML 35; 2 hr, 37° C., 10 mM PIPES, pH 7.4, 5 mM glucose, FIG. 9C",killed
same,activity of cyclic form relative to acyclic form,E. coli ML 35; gram negative bacteria (E. coli),about three times more active
same,effect of NaCl on staphylocidal activity,"[1]; 10 μg/ml peptide, 2 h incubation, NaCl concentrations as high as 150 mM, FIG. 9E",little effect
same,microbicidal activity,"[1]; 37° C., 10 mM PIPES, pH 7.4, 5 mM glucose, FIG. 9",killed
same,peptide concentration reducing colony counts to below the level of detection,"[1]; 2 h at 37° C. in 10 mM PIPES, pH 7.4, FIG. 8",≥ 4 µg/mL
same,activity of cyclic form relative to acyclic form,[1]; gram positive bacteria (Staphylococcus),about three times more active
same,microbicidal activity,L. monocytogenes,killed
same,microbicidal activity,S. typhimurium,killed
same,zone of inhibition,Escherichia coli ML35; [5],dose dependent increase in the zone of inhibition
same,antibacterial activity (screen of purified chromatographic peaks),Escherichia coli ML35; [6],greatest activity of any of the peptides isolated
same,zone of inhibition,[2]; [5],dose dependent increase in the zone of inhibition
same,antibacterial activity (screen of purified chromatographic peaks),[2]; [6],greatest activity of any of the peptides isolated
same,microbicidal activity,C. neoformans,killed
same,zone of inhibition,[3],dose dependent increase in the zone of inhibition
same,zone of inhibition,[4],dose dependent increase in the zone of inhibition
